# “Also recorded” adds a separate entry of the source.
# Experiments:
# TRPA1 [1] = assay: Calcium imaging of TRP transfected cell lines treated with acetaldehyde (TRPA1); format: cell-based; details: 1 mM acetaldehyde
# From the text: (§1) HEK293T cell line (ATCC CRL-11268) was transiently transfected with plasmid DNA containing polynucleotide encoding hTRPA1 (SEQ. ID. NO: 1), rTRPV2 (SEQ. ID. NO: 2), rTRPV1 (SEQ. ID. NO: 3), mTRPV4 (SEQ. ID. NO: 4), mTRPA1 (SEQ. ID. NO: 5), hTRPV3 (SEQ. ID. NO: 6) or mTRPM8 (SEQ. ID. NO: 7).
# (§2) Particularly, the HEK293T cell line was transiently transfected with individual TRP channel plasmid (pcDNA3.1 containing polynucleotide encoding hTRPA1, rTRPV2, rTRPV1 or mTRPV4; pcDNA5/FRT containing polynucleotide encoding mTRPA1, hTRPV3 or mTRPM8) 3 μg per 35-mm dish and 600 ng/well of pcDNA3 (Invitrogen Corp., USA; containing green fluorescent protein (GFP) cDNA) using Fugene6 (Roche Diagnostics, USA) according to manufacturer's instruction. The transformed cells were cultured in DMEM/F12 containing 10% FBS and 1% penicillin/streptomycin in a CO2 incubator for 24 hours. The cells were replated onto poly-L-lysine-coated glass coverslips, followed by further culture for 10-24 hours.
# (§3) Particularly, the transfected cell line of Example <4-1> was loaded with Fluo-3AM (5 μM; Sigma Aldrich, USA) in the bath solution (140 mM NaCl, 5 mM KCl, 2 mM CaCl2, 1 mM MgCl2, 10 mM HEPES; adjusted to pH 7.4 with NaOH) containing 0.02% pluronic acid (Invitrogen, USA). […]
# ICR mice = assay: Acute hindpaw licking/flicking behavioral analysis; details: 10 min
# Method: This analysis was performed in accordance with protocols approved by the University Committee on Laboratory Animals. Mice were acclimated for 1 h to the test environment prior to experiments. Drugs dissolved in vehicle (PBS containing 0.5% Tween 80) were injected into mice right hindpaws intradermally.
# TRPA1 [2] = assay: Whole-cell voltage-clamp recording of TRPA1 transfected cell line; format: cell-based; details: 1 mM acetaldehyde, 300 μM cinnamaldehyde, voltage ramp -80 to +80 mV, n=5
# Method: as §2
# (§4) Stock solutions were made using water or ethanol, and were diluted with test solutions before use.
# This experiment was repeated 5 times.
# hTRPA1 = molecular target: T1, hTRPA1 (Homo sapiens, UniProt O75762); assay: Fluo-3 calcium imaging of hTRPA1-transfected HEK293T cells; format: cell-based
# T1 construct: expressed in transfected cells; host or cells: HEK293T (ATCC CRL-11268), pcDNA3.1
# Method: as §2, §4
# Calcium imaging was performed with a confocal microscope (LSM5 Pascal, Carl Zeiss, Germany), and time-lapse images (488 nm excitation/514 nm emission) were collected every 3 seconds using Carl Zeiss ratio tool software (Carl Zeiss, Germany).
# as §4
# trigeminal neurons = assay: Fluo-3 calcium imaging of cultured mouse trigeminal neurons
# Method: The trigeminal neurons prepared thereby were then plated onto poly-L-lysine-coated coverslips in DMEM/F12 containing 10% FBS, 1% penicillin/streptomycin and 5 ng/Ml of 2.5S NGF (Invitrogen, USA), nerve growth factor (Invitrogen), followed by culture in a CO2 incubator for 48-72 hours.
# TRPM8 = molecular target: T2, TRPM8 (Mus musculus, UniProt Q8R4D5); assay: Calcium imaging of TRP transfected cell lines treated with acetaldehyde (TRPM8); format: cell-based; details: 1 mM acetaldehyde
# T2 construct: expressed in transfected cells; host or cells: HEK293T (ATCC CRL-11268), pcDNA5/FRT
# From the text: as §1, §2, §3
# TRPV3 = molecular target: T3, TRPV3 (Homo sapiens, UniProt Q8NET8); assay: Calcium imaging of TRP transfected cell lines treated with acetaldehyde (TRPV3); format: cell-based; details: 1 mM acetaldehyde
# T3 construct: expressed in transfected cells; host or cells: HEK293T (ATCC CRL-11268), pcDNA5/FRT
# T3 sequence (Q8NET8 1-790): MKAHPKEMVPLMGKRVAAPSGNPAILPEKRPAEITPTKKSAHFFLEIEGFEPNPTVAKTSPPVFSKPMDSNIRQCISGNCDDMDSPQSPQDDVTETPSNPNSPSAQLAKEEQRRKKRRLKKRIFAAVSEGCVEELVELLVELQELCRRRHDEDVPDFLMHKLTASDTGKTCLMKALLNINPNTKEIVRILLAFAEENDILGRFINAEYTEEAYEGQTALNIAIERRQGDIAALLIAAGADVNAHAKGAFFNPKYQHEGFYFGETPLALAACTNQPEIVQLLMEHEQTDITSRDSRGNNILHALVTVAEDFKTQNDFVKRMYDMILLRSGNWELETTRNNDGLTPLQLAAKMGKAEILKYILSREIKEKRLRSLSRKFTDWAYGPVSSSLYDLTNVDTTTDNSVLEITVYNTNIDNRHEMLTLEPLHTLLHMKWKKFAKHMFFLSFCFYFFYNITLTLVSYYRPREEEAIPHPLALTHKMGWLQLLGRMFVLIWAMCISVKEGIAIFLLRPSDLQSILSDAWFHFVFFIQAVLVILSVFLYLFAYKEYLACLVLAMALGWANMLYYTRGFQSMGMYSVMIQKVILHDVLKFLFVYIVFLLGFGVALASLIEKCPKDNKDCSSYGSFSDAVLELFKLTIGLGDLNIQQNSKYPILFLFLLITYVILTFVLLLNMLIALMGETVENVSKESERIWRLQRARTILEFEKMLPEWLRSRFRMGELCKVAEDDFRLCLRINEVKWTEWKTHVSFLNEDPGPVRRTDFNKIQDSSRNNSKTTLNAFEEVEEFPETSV
# From the text: as §1, §2, §3
# TRPV4 = molecular target: T4, TRPV4 (Mus musculus, UniProt Q9EPK8); assay: Calcium imaging of TRP transfected cell lines treated with acetaldehyde (TRPV4); format: cell-based; details: 1 mM acetaldehyde
# T4 construct: expressed in transfected cells; host or cells: HEK293T (ATCC CRL-11268), pcDNA3.1
# From the text: as §1, §2, §3
# T1 sequence (O75762 whole entry): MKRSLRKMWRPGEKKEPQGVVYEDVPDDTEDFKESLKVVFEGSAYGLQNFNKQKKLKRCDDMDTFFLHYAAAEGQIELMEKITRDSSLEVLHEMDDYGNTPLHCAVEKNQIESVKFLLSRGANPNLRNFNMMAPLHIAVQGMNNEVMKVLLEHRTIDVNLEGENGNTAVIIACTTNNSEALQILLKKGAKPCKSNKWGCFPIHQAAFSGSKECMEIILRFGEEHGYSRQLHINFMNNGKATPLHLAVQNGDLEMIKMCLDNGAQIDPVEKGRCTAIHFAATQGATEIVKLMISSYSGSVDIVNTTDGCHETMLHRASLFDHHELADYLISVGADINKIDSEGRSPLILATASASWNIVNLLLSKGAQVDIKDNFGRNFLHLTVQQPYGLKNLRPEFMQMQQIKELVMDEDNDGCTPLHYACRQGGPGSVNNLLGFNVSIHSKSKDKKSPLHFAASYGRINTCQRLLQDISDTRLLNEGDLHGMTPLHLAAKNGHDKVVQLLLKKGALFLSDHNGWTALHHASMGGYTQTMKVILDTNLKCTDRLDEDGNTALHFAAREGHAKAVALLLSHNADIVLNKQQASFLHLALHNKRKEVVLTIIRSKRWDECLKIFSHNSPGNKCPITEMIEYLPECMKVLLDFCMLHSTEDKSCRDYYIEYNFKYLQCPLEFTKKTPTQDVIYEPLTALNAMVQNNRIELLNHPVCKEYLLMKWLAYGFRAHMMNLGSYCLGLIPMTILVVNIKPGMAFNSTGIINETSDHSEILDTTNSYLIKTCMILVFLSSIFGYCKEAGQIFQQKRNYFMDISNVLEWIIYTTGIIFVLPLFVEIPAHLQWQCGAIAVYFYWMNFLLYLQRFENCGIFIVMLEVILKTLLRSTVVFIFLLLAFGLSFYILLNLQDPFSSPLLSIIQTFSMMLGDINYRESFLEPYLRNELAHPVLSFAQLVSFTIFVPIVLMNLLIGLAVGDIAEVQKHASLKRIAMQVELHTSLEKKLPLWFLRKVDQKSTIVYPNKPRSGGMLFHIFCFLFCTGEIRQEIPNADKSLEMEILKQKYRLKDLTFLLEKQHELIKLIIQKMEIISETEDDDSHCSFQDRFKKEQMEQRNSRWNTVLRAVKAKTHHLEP
# T4 sequence (Q9EPK8 whole entry): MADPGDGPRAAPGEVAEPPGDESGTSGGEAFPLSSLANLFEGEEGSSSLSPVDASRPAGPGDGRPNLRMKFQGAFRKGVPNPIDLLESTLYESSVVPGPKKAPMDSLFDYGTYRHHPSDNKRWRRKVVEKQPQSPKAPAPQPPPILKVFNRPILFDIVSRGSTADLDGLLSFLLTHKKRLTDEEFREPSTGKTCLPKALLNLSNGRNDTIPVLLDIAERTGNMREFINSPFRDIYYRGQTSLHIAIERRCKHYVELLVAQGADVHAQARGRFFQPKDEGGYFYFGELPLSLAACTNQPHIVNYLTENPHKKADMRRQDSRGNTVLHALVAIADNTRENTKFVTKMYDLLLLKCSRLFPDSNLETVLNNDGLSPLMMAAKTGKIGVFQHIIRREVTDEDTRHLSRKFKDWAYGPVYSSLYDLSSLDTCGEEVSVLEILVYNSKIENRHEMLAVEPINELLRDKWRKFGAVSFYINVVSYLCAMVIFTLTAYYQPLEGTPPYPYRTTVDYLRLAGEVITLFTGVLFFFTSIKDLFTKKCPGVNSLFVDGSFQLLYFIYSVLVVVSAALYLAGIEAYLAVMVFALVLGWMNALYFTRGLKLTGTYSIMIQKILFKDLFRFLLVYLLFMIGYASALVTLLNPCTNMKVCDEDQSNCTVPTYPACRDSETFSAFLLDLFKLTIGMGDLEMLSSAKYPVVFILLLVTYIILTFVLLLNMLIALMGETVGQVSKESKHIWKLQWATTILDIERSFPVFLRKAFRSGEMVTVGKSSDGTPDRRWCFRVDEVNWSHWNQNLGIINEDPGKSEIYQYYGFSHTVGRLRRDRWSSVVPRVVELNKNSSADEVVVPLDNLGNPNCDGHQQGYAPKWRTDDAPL
# T2 sequence (Q8R4D5 whole entry): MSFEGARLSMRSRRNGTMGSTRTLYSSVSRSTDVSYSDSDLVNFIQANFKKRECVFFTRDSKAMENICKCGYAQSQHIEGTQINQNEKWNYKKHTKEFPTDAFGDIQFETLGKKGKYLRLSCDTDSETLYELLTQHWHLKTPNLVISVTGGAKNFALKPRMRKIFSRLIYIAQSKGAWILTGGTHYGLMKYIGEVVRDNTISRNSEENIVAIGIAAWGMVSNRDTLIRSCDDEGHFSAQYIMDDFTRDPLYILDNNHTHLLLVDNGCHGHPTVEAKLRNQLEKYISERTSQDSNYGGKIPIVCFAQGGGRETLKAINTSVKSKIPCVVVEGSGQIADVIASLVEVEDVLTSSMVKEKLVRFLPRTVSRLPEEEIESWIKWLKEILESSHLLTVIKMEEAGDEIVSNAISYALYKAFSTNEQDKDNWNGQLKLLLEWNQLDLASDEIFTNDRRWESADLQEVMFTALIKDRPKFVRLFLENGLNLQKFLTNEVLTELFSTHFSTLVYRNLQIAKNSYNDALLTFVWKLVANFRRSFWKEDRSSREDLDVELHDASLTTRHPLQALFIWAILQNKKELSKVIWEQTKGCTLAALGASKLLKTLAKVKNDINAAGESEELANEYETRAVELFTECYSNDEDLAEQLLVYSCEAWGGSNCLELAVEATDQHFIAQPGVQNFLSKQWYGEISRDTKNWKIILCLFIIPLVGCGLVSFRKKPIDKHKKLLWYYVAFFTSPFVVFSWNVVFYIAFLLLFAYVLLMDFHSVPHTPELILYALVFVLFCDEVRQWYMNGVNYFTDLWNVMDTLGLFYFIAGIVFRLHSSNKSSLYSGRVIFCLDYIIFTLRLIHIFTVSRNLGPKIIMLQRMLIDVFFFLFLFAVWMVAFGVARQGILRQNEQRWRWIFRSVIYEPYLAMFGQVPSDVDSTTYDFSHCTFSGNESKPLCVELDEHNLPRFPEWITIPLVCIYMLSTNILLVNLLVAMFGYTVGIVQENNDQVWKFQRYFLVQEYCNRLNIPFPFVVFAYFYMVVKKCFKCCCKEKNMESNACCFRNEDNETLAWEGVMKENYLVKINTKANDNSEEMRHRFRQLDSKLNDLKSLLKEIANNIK
smiles,measurement,setting,value
CC=O [acetaldehyde],activation of TRPA1 by acetaldehyde,TRPA1 [1],only TRPA1 was activated
same,dose dependence of acetaldehyde-induced nociceptive behaviors,"ICR mice; 1 mM, 10 mM, 100 mM acetaldehyde intradermal",increased in a dose-dependent manner
same,acute hindpaw licking/flicking behavior elicited,"ICR mice; intradermal into hindpaw, 10 μl, 100 mM acetaldehyde or 10 mM cinnamaldehyde, n=5",elicited acute licking or flicking behavior
same,whole-cell current response in TRPA1 expressing cells,TRPA1 [2],pronounced outwardly rectifying current occurred
same,EC50,hTRPA1,76.5 µM
same,elevation of intracellular calcium levels in hTRPA1-expressing cells,"hTRPA1; 1 mM acetaldehyde, 300 μM cinnamaldehyde, 10 mM acetic acid, 1% methanol, 1% ethanol",TRPA1-specific responses; also recorded: responded
same,n of dose-response curve (Hill plot) on hTRPA1,"hTRPA1; acetaldehyde 1 to 10^4 μM, Fluo-3 calcium imaging",2.4
same,acetaldehyde response of capsaicin-cinnamaldehyde-positive neurons,"trigeminal neurons; 1 mM acetaldehyde, n=19",did response
same,acetaldehyde response of menthol-positive neurons,"trigeminal neurons; 1 mM acetaldehyde, n=36, considered to express TRPM8",did not show response
same,acetaldehyde response of capsaicin-positive/cinnamaldehyde-negative neurons,"trigeminal neurons; 1 mM acetaldehyde, n=102, considered to express TRPV1",did not show response
same,EC50,"trigeminal neurons; Mus musculus, Neuron, read-out: EC50 of acetaldehyde alone (Kd of dose-response curve) in trigeminal neurons",740 µM
same,maximum efficacy heightened with PGE2 versus acetaldehyde alone,trigeminal neurons; acetaldehyde + 1 μM PGE2,1.2 fold
same,activation of TRPM8 by acetaldehyde,TRPM8,only TRPA1 was activated
same,activation of TRPV3 by acetaldehyde,TRPV3,only TRPA1 was activated
same,activation of TRPV4 by acetaldehyde,TRPV4,only TRPA1 was activated

# Source: patent US7960130B2, “Method for activation of transient receptor potential cation channel, subfamily A, member 1 using acetaldehyde” (Korea University Industry and Academy Cooperation Foundation, priority 2008, dated 2011)
